Source: publication PMC9822066 (Molecules, 2022)
Where a name gives a salt, the structure may show the parent alone. Read-outs that look alike come from different tables or passages of the source.

Key:
[1] = biological target: T1, hMAO B (Homo sapiens, UniProt P27338); experiment: Fluorometric MAO assay, hMAO B inhibition; format: biochemical; conditions: mean ± SEM of two independent experiments, read-out: hMAO B %Inh. at 1 µM
T1 sequence (P27338 1-520): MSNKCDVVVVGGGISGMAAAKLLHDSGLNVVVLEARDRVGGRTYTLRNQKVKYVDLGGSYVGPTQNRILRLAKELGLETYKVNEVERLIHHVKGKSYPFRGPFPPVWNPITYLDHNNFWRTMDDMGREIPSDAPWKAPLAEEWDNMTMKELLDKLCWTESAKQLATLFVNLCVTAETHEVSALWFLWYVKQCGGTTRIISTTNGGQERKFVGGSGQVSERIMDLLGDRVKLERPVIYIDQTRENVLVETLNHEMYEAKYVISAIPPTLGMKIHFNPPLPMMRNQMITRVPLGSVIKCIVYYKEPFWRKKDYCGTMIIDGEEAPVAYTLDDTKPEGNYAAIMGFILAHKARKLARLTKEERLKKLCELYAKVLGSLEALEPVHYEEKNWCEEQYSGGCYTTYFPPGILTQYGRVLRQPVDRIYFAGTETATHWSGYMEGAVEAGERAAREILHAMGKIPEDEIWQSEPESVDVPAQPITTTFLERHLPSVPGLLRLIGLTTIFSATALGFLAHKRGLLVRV

[2] = biological target: T2, human H3R (Homo sapiens, UniProt Q9Y5N1); experiment: [3H]Nα-methylhistamine radioligand binding assay in HEK293 cells stably expressing hH3R
T2 construct: expressed in transfected cells; host or cells: HEK293
Experimental: Final compounds were tested for their H3R affinity in a radioligand binding assay using [^3H]N^α-methylhistamine as radioligand in HEK293 cells stably expressing hH3R [25]. […] Affinity to hH3R stably expressed in HEK293 cells was evaluated in a radioligand binding assay as described previously. […] The radioactivity was counted in a MicroBeta Trilux counter (PerkinElmer). Data were fitted to a one-site curve-fitting equation with Prism 6 (GraphPad Software, San Diego, CA, USA) and Ki values were calculated from IC50 values (from at least three experiments performed in duplicates) according to the Cheng−Prusoff equation [52].

[3] = biological target: BuChE from equine serum (eqBuChE) (Equus caballus, UniProt P81908); experiment: biochemical; format: biochemical; conditions: for IC50: mean ± SEM, triplicate independent experiments
[4] = biological target: T3, electric eel AChE (eeAChE) (Electrophorus electricus, UniProt O42275); experiment: biochemical; conditions: for IC50: mean ± SEM, triplicate independent experiments, read-out: eeAChE IC50; for inhibition at 10 µM: read-out: eeAChE % Inh. at 10 µM
T3 construct: purchased Sigma–Aldrich (Steinheim, Germany)

[5] = mean value within the 95% CI, three repetitions, read-out: hH3R Ki

T2 sequence (Q9Y5N1 whole entry): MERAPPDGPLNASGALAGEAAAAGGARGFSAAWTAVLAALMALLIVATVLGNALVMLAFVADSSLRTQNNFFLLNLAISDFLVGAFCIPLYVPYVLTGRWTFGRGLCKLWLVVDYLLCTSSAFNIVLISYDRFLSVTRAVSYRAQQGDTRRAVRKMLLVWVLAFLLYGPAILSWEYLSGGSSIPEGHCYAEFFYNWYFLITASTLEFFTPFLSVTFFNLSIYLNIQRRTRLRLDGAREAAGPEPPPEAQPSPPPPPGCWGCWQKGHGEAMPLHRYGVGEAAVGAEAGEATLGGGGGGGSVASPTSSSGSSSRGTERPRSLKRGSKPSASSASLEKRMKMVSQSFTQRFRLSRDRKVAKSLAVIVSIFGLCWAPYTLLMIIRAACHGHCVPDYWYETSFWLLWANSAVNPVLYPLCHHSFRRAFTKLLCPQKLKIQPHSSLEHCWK
Chain of BuChE from equine serum (eqBuChE) (P81908 whole entry): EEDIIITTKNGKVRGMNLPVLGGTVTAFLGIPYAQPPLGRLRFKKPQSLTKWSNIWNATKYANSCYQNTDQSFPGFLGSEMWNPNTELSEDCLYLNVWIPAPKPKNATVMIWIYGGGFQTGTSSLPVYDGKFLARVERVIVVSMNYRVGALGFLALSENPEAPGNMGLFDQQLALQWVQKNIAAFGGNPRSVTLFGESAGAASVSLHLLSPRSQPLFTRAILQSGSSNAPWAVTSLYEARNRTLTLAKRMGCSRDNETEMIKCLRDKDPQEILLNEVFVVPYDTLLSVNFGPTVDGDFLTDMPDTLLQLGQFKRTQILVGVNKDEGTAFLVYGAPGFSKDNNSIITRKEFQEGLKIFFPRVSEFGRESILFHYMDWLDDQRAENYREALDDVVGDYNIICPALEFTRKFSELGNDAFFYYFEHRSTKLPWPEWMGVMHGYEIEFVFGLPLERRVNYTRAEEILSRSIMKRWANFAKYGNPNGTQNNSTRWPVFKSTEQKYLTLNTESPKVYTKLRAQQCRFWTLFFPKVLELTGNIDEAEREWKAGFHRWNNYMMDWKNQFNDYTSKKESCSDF
T3 sequence (O42275 24-633): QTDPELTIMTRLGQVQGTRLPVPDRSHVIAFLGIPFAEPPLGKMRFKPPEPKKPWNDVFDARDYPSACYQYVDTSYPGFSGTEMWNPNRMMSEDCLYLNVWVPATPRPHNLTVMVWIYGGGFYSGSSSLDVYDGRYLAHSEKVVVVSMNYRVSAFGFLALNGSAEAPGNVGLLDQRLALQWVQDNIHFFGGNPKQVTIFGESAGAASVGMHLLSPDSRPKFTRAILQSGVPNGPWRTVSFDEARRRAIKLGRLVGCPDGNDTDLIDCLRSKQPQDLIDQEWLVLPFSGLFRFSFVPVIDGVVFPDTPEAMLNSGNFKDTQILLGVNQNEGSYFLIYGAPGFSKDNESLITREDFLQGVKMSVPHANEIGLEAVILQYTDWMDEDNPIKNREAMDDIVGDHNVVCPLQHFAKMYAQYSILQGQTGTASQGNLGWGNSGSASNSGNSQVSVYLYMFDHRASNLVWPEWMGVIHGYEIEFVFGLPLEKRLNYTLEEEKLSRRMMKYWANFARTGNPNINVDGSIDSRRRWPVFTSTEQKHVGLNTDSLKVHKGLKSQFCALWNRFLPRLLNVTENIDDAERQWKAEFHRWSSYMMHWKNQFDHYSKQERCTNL

Row | Structure (SMILES) | inhibition at 1 µM [1] [%] | Ki [2] [nM] | IC50 [3] [nM] | IC50 [4] [nM] | selectivity eqBuChE versus eeAChE [3] | inhibition at 10 µM [4] [%] | Ki [2, 5] [nM]
1 | O=C(c1ccc(Cl)cc1)c1ccc(OCCCCCN2CCCCCC2)cc1 [Compound 29, (4-Chlorophenyl)(4-(5-(azepan-1-yl)pentyloxy)phenyl)methanone hydrogen oxalate] | 26 | 66 | 676 ± 3 | 2240 ± 35 |  |  | 
2 | CC1CCCN(CCCCCOc2ccccc2C(=O)c2ccccc2)C1.O=C(O)C(=O)O (stereo not shown) [Compound 12, (2-((5-(3-Methylpiperidin-1-yl)pentyl)oxy)phenyl)(phenyl)methanone hydrogen oxalate] | 9 | 208 | 1610 ± 61 |  | selective eqBuChE inhibitors | 16 | 
3 | CC1CCN(CCCCCOc2ccc(C(=O)c3ccccc3)cc2)CC1 [Compound 23, (4-((5-(4-Methylpiperidin-1-yl)pentyl)oxy)phenyl)(phenyl)methanone hydrogen oxalate] | 27 | 67 | 1570 ± 35 | 2600 ± 72 |  |  | 
4 | O=C(c1ccc(F)cc1)c1ccc(OCCCCCCN2CCCCC2)cc1 [Compound 11, (4-Fluorophenyl) (4-((6-(piperidin-1-yl)hexyl)oxy)phenyl)methanone hydrogen oxalate] | 28 | 26 | 419 ± 2 | 3098 ± 9 |  |  | 
5 | CC1CCN(CCCCCOc2cccc(C(=O)c3ccccc3)c2)CC1 [Compound 22, (3-((5-(4-Methylpiperidin-1-yl)pentyl)oxy)phenyl)(phenyl)methanone hydrogen oxalate] | 32 | 298 | 1700 ± 46 | 4450 ± 94 |  |  | 
6 | O=C(c1ccc(Cl)cc1)c1ccc(OCCCCCCN2CCCCCC2)cc1 [Compound 34, (4-Chlorophenyl)(4-((6-(azepan-1-yl)hexyl)oxy)phenyl)methanone hydrogen oxalate] | 30 | 133 | 867 ± 2 | 2033 ± 18 |  |  | 
7 | O=C(O)C(=O)O.O=C(c1ccccc1)c1ccccc1OCCCCCN1CCCCC1 [Compound 2, Phenyl (2-((5-(piperidin-1-yl)pentyl)oxy)phenyl)methanone hydrogen oxalate] | 23 | 371 | 1610 ± 60 |  | selective eqBuChE inhibitors | 22 | 
8 | CC1CCCN(CCCCCOc2cccc(C(=O)c3ccccc3)c2)C1 (stereo not shown) [Compound 13, (3-((5-(3-Methylpiperidin-1-yl)pentyl)oxy)phenyl)(phenyl)methanone hydrogen oxalate] | 8 | 78 | 3420 ± 78 | 3790 ± 104 |  |  | 
9 | CC1CCCN(CCCCCCOc2ccccc2C(=O)c2ccccc2)C1.O=C(O)C(=O)O (stereo not shown) [Compound 17, (2-((6-(3-Methylpiperidin-1-yl)hexyl)oxy)phenyl)(phenyl)methanone hydrogen oxalate] | 8 | 152 | 2500 ± 28 |  | selective eqBuChE inhibitors | 20 | 
10 | O=C(c1ccccc1)c1cccc(OCCCCCN2CCCCCC2)c1 [Compound 27, (3-((5-(Azepan-1-yl)pentyl)oxy)phenyl)(phenyl)methanone hydrogen oxalate] | 14 | 307 | 901 ± 10 | 3660 ± 92 |  |  | 
11 | CC1CCN(CCCCCCOc2ccc(C(=O)c3ccccc3)cc2)CC1 [Compound 25, (4-((6-(4-Methylpiperidin-1-yl)hexyl)oxy)phenyl)(phenyl)methanone hydrogen oxalate] | 22 | 53 | 1560 ± 50 | 2690 ± 47 |  |  | 
12 | O=C(c1ccccc1)c1cccc(OCCCCCN2CCCCC2)c1 [Compound 3, Phenyl (3-((5-(piperidin-1-yl)pentyl)oxy)phenyl)methanone hydrogen oxalate] | 15 | 210 | 4010 ± 67 | 7750 ± 329 |  |  | 
13 | O=C(c1ccc(F)cc1)c1ccc(OCCCCCN2CCCCCC2)cc1 [Compound 30, (4-Fluorophenyl) (4-((5-(azepan-1-yl)pentyl)oxy)phenyl)methanone hydrogen oxalate] | 30 | 13 | 224 ± 3 | 1110 ± 3 |  |  | 
14 | CC1CCCN(CCCCCCOc2ccc(C(=O)c3ccc(Cl)cc3)cc2)C1 (stereo not shown) [Compound 20, (4-Chlorophenyl) (4-((6-(3-methylpiperin-1-yl)hexyl)oxy)phenyl)methanone hydrogen oxalate] | 17 |  | 2520 ± 31 | 2740 ± 98 |  |  | 44
15 | CC1CCCN(CCCCCCOc2ccc(C(=O)c3ccc(F)cc3)cc2)C1 (stereo not shown) [Compound 21, (4-Fluorophenyl) (4-(6-(3-methylpiperin-1-yl)hexyloxy)phenyl)methanone hydrogen oxalate] | 23 |  | 2560 ± 40 | 2000 ± 46 |  |  | 75
16 | O=C(O)C(=O)O.O=C(c1ccccc1)c1ccccc1OCCCCCCN1CCCCCC1 [Compound 31, (2-((6-(Azepan-1-yl)hexyl)oxy)phenyl)(phenyl)methanone hydrogen oxalate] | 5 | 162 | 317 ± 3 |  | selective eqBuChE inhibitors | 11 | 
17 | CC1CCCN(CCCCCOc2ccc(C(=O)c3ccc(F)cc3)cc2)C1 (stereo not shown) [Compound 16, (4-Fluorophenyl) (4-((5-(3-methylpiperidin-1-yl)pentyl)oxy)phenyl)methanone hydrogen oxalate] | 20 | 12 | 311 ± 6 | 2023 ± 6 |  |  | 
18 | O=C(O)C(=O)O.O=C(c1ccccc1)c1ccccc1OCCCCCN1CCCCCC1 [Compound 26, (2-((5-(Azepan-1-yl)pentyl)oxy)phenyl)(phenyl)methanone hydrogen oxalate] | 3 | 302 | 384 ± 8 |  | selective eqBuChE inhibitors | 24 | 
19 | O=C(c1ccc(Cl)cc1)c1ccc(OCCCCCCN2CCCCC2)cc1 [Compound 10, (4-Chlorophenyl) (4-((6-(piperidin-1-yl)hexyl)oxy)phenyl)methanone hydrogen oxalate] | 39 | 25 | 2460 ± 61 | 2670 ± 94 |  |  | 
20 | Clc1ccc(CCCOCCCN2CCCCC2)cc1 [pitolisant, reference compound] |  |  |  |  |  | 3 | 
21 | CC1CCCN(CCCCCOc2ccc(C(=O)c3ccc(Cl)cc3)cc2)C1 (stereo not shown) [Compound 15, (4-Chlorophenyl) (4-((5-(3-methylpiperin-1-yl)pentyl)oxy)phenyl)methanone hydrogen oxalate] | 19 |  | 2560 ± 50 | 2650 ± 87 |  |  | 37
22 | O=C(c1ccccc1)c1ccc(OCCCCCN2CCCCC2)cc1 [Compound 4, Phenyl (4-((5-(piperidin-1-yl)pentyl)oxy)phenyl)methanone hydrogen oxalate] | 44 |  | 2480 ± 40 |  |  | 41 | 
23 | O=C(O)C(=O)O.O=C(c1ccccc1)c1ccccc1OCCCCCCN1CCCCC1 [Compound 7, (2-((6-(Piperidin-1-yl)hexyl)oxy)phenyl)(phenyl)methanone hydrogen oxalate] | 12 | 161 | 2110 ± 32 |  | selective eqBuChE inhibitors | 3 | 
24 | O=C(c1ccc(Cl)cc1)c1ccc(OCCCCCN2CCCCC2)cc1 [Compound 5, (4-Chlorophenyl) (4-((5-(piperidin-1-yl)pentyl)oxy)phenyl)methanone hydrogen oxalate] | 18 | 20 | 1680 ± 17 | 2870 ± 71 |  |  | 
25 | CC1CCN(CCCCCCOc2cccc(C(=O)c3ccccc3)c2)CC1 [Compound 24, (3-((6-(4-Methylpiperidin-1-yl)hexyl)oxy)phenyl)(phenyl)methanone hydrogen oxalate] | 20 | 106 | 1060 ± 43 | 2460 ± 70 |  |  | 
26 | O=C(c1ccc(F)cc1)c1ccc(OCCCCCCN2CCCCCC2)cc1 [Compound 35, (4-((6-(Azepan-1-yl)hexyl)oxy)phenyl)(4-fluorophenyl)methanone hydrogen oxalate] | 24 | 35 | 161 ± 4 | 1654 ± 4 |  |  | 
